Experimental data published in ChEMBL document CHEMBL1909046, “DrugMatrix in vitro pharmacology data”.

What was measured:
[1] = molecular target: Vascular endothelial growth factor receptor 1 (Homo sapiens, UniProt P17948); type: cell-based; details: huvec; further: in other assays of this panel Not Active means under 50% inhibition at 10 µM
[2] = DRUGMATRIX: Calcium Channel Type L, Phenylalkylamine radioligand binding (ligand: [3H] (-)-Desmethoxyverapamil (D-888)); type: cell membranes, Rattus norvegicus, Wistar, Brain, Membrane; details: Not Active = under 50% inhibition at 10 µM
[3] = molecular target: T1, Amine oxidase [flavin-containing] A (Homo sapiens, UniProt P21397); assay: DRUGMATRIX: Monoamine Oxidase MAO-A enzyme inhibition (substrate: Kynuramine); parameters: species or system BTI-TN-5B1-4; details: Not Active = under 50% inhibition at 10 µM
T1 sequence (P21397 whole entry): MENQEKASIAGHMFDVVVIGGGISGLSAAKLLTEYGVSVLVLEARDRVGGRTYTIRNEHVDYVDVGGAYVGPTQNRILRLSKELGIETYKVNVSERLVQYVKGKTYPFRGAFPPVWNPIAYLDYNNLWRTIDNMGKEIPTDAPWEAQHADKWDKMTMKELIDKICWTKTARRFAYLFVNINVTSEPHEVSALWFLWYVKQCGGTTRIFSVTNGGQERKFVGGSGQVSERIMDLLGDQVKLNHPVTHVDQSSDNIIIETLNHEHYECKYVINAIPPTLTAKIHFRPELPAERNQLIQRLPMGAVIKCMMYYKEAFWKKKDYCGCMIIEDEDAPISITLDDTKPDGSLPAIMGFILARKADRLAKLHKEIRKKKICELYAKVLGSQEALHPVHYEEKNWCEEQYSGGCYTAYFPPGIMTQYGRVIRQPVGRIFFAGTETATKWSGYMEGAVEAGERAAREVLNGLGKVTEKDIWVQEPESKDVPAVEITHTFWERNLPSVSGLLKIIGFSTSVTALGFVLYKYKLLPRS

[4] = molecular target: Receptor tyrosine-protein kinase erbB-2 (Homo sapiens, UniProt P04626); assay: biochemical; type: cell-based, Insect cells;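 further: inhibition of HER2 kinase enzyme activity, measured with Poly(Glu:Tyr) as the phosphorylation substrate; in other assays of this panel Not Active means under 50% inhibition at 10 µM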
Sequence of Receptor tyrosine-protein kinase erbB-2 (P04626 whole entry): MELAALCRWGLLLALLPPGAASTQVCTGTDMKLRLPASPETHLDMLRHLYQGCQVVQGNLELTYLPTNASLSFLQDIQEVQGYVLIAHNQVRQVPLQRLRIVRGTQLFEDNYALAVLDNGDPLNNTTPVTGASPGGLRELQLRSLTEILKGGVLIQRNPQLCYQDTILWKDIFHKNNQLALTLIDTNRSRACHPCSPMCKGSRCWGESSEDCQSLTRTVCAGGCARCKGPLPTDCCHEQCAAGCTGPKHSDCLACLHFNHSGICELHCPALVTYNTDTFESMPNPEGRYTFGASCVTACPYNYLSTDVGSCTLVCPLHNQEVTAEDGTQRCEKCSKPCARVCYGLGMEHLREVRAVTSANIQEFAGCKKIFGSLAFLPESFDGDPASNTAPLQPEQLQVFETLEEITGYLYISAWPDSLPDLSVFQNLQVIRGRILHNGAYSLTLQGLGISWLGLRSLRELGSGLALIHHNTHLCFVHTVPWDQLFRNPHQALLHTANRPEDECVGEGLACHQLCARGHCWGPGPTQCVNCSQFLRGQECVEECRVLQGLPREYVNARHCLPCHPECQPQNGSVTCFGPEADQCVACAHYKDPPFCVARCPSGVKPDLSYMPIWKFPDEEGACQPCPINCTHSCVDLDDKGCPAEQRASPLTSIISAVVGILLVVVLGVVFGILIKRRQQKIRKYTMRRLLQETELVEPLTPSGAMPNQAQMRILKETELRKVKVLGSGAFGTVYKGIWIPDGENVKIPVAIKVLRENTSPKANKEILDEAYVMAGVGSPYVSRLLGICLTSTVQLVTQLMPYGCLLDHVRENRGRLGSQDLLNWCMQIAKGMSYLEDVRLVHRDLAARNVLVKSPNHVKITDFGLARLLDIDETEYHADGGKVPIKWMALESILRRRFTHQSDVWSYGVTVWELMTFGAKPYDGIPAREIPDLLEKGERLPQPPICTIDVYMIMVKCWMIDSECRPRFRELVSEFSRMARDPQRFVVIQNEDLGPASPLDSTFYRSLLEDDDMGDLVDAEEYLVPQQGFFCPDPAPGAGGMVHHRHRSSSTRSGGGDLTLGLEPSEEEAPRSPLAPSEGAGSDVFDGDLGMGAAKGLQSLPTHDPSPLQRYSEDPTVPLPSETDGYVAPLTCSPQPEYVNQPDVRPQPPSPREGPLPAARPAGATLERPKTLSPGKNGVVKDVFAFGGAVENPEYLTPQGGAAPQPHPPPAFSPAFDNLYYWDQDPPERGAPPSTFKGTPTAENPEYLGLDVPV

[5] = DRUGMATRIX: Imidazoline I2, Central radioligand binding (ligand: [3H] Idazoxan); type: cell membranes, Rattus norvegicus, Wistar, Cerebral cortex, Membrane; details: Not Active = under 50% inhibition at 10 µM
[6] = molecular target: T2, Adenosine receptor A3 (Homo sapiens, UniProt P0DMS8); type: cell membranes, CHO-K1, Membrane;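 further: radioligand binding assay with AB-MECA serving as the labeled ligand; in other assays of this panel Not Active means under 50% inhibition at 10 µM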
T2 sequence (P0DMS8 whole entry): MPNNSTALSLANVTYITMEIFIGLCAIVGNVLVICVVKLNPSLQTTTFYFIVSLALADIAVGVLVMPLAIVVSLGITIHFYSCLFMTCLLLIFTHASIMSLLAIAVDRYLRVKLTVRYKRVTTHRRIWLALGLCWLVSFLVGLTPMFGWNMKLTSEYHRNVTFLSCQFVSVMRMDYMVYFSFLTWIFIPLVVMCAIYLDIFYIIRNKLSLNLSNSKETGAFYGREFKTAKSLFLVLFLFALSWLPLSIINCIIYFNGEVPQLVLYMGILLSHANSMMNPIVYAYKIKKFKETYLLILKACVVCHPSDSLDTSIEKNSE

Sequence of Vascular endothelial growth factor receptor 1 (P17948 whole entry): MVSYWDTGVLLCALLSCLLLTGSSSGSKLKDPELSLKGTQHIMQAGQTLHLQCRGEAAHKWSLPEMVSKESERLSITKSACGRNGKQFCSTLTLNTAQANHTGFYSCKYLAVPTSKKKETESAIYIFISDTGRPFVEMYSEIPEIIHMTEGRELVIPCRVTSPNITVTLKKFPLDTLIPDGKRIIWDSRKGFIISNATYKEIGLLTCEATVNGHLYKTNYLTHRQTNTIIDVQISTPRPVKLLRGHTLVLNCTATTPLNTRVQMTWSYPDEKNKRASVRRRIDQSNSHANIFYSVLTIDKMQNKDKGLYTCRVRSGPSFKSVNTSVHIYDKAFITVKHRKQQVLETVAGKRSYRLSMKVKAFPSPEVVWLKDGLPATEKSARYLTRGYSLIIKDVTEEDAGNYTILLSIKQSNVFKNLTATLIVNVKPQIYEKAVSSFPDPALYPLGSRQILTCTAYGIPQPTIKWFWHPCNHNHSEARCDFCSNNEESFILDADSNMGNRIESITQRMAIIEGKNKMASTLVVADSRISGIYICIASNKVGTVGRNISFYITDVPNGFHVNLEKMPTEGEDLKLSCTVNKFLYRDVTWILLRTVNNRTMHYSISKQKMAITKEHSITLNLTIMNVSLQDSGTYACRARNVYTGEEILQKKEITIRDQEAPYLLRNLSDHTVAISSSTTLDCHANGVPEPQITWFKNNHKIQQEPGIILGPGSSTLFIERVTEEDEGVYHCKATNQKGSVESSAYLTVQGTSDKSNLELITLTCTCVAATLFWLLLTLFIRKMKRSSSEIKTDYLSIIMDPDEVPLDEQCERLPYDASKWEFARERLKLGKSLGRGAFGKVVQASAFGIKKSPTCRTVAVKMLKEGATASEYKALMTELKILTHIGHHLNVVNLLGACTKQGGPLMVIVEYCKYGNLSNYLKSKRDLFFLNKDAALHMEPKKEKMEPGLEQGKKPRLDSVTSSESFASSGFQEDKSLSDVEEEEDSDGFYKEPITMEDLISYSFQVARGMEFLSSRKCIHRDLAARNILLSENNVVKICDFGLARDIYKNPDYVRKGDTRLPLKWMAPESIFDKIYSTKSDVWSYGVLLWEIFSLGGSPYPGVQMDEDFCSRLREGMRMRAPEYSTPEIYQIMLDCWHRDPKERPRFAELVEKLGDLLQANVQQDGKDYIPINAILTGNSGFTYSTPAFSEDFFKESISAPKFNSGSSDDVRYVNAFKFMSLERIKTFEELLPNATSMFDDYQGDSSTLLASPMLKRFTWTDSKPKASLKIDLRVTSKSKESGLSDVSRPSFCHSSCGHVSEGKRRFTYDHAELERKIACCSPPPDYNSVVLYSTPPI

Row | Structure (SMILES) | IC50 [1] | IC50 [2] | Ki [2] | IC50 ([3]; bti-tn-5b1-4) | IC50 ([4]; insect cells) | IC50 [5] | Ki [5] | IC50 ([6]; cho-k1) | IC50 ([2]; read-out: IC50) [µM] | Ki ([2]; read-out: Ki) [µM] | IC50 ([5]; read-out: IC50) [µM] | Ki ([5]; read-out: Ki) [µM] | IC50 ([3]; read-out: IC50) [µM] | IC50 ([4]; read-out: IC50) [µM] | IC50 ([6]; read-out: IC50) [µM] | Ki ([6]; read-out: Ki) [µM]
1 | CC(C)c1c(C(=O)Nc2ccccc2)c(-c2ccccc2)c(-c2ccc(F)cc2)n1CC[C@@H](O)C[C@@H](O)CC(=O)O [ATORVASTATIN] | Not Active | Not Active | Not Active | Not Active | Not Active | Not Active | Not Active | Not Active | – | – | – | – | – | – | – | –
2 | CN(C)CCC=C1c2ccccc2CCc2ccccc21 [AMITRIPTYLINE] | Not Active | – | – | Not Active | Not Active | – | – | Not Active | 0.84 | 0.816 | 1.69 | 1.12 | – | – | – | –
3 | C[C@]12CC[C@H]3[C@@H](CCC4=CC(=O)CC[C@@H]43)[C@@H]1CC[C@@H]2O [NANDROLONE] | Not Active | Not Active | Not Active | Not Active | Not Active | Not Active | Not Active | Not Active | – | – | – | – | – | – | – | –
4 | N=C(N)c1ccc(OCCCCCOc2ccc(C(=N)N)cc2)cc1 [PENTAMIDINE] | Not Active | – | – | – | Not Active | – | – | Not Active | 1.39 | 1.35 | 3.52 | 2.35 | 0.793 | – | – | –
5 | CCOc1nc2cccc(C(=O)O)c2n1Cc1ccc(-c2ccccc2-c2nnn[nH]2)cc1 | Not Active | Not Active | Not Active | Not Active | – | Not Active | Not Active | – | – | – | – | – | – | 5.95 | 1.22 | 0.69
6 | COc1cccc2c1C(=O)c1c(O)c3c(c(O)c1C2=O)C[C@@](O)(C(C)=O)C[C@@H]3O[C@H]1C[C@H](N)[C@H](O)[C@H](C)O1 [DAUNORUBICIN] | Not Active | Not Active | Not Active | Not Active | Not Active | Not Active | Not Active | Not Active | – | – | – | – | – | – | – | –
7 | CC(O)(P(=O)(O)O)P(=O)(O)O [ETIDRONIC ACID] | Not Active | Not Active | Not Active | Not Active | Not Active | Not Active | Not Active | Not Active | – | – | – | – | – | – | – | –
8 | CC(=O)Oc1ccccc1C(=O)O [ASPIRIN] | Not Active | Not Active | Not Active | Not Active | Not Active | Not Active | Not Active | Not Active | – | – | – | – | – | – | – | –
9 | O=c1[nH]c(=O)n([C@H]2C[C@H](O)[C@@H](CO)O2)cc1F [FLOXURIDINE] | Not Active | Not Active | Not Active | Not Active | Not Active | Not Active | Not Active | Not Active | – | – | – | – | – | – | – | –
10 | O=C(O)CC(O)(CC(=O)O)C(=O)O [CITRIC ACID] | Not Active | Not Active | Not Active | Not Active | Not Active | Not Active | Not Active | Not Active | – | – | – | – | – | – | – | –
11 | CCCCC1=NC2(CCCC2)C(=O)N1Cc1ccc(-c2ccccc2-c2nnn[nH]2)cc1 [IRBESARTAN] | Not Active | Not Active | Not Active | Not Active | Not Active | Not Active | Not Active | Not Active | – | – | – | – | – | – | – | –
12 | CN(C)C(=N)NC(=N)N [METFORMIN] | Not Active | Not Active | Not Active | Not Active | Not Active | Not Active | Not Active | Not Active | – | – | – | – | – | – | – | –
13 | C[C@H]1O[C@H](O[C@H]2[C@H](O)[C@@H](O)[C@@H](O[C@H]3[C@H](O)[C@@H](O)C(O)O[C@@H]3CO)O[C@@H]2CO)[C@H](O)[C@@H](O)[C@@H]1N[C@H]1C=C(CO)[C@@H](O)[C@H](O)[C@H]1O (stereo partly drawn) [ACARBOSE] | Not Active | Not Active | Not Active | Not Active | Not Active | Not Active | Not Active | Not Active | – | – | – | – | – | – | – | –
14 | COc1ccccc1N | Not Active | Not Active | Not Active | Not Active | Not Active | Not Active | Not Active | Not Active | – | – | – | – | – | – | – | –
15 | CC(O)COC[C@H]1O[C@@H]2O[C@H]3[C@H](O)[C@@H](O)[C@@H](O[C@H]4[C@H](O)[C@@H](O)[C@@H](O[C@H]5[C@H](O)[C@@H](O)[C@@H](O[C@H]6[C@H](O)[C@@H](O)[C@@H](O[C@H]7[C@H](O)[C@@H](O)[C@@H](O[C@H]8[C@H](O)[C@@H](O)[C@@H](O[C@H]1[C@H](O)[C@H]2O)O[C@@H]8COCC(C)O)O[C@@H]7COCC(C)O)O[C@@H]6COCC(C)O)O[C@@H]5COCC(C)O)O[C@@H]4COCC(C)O)O[C@@H]3COCC(C)O (stereo partly drawn) [2-HYDROXYPROPYL-BETA-CYCLODEXTRIN] | Not Active | Not Active | Not Active | – | Not Active | Not Active | Not Active | Not Active | – | – | – | – | 0.167 | – | – | –
16 | N[C@@H](Cn1ccc(=O)c(O)c1)C(=O)O [L-MIMOSINE] | Not Active | Not Active | Not Active | Not Active | Not Active | Not Active | Not Active | Not Active | – | – | – | – | – | – | – | –
17 | CS(=O)(=O)Nc1ccc([N+](=O)[O-])cc1Oc1ccccc1 [NIMESULIDE] | Not Active | Not Active | Not Active | Not Active | Not Active | Not Active | Not Active | Not Active | – | – | – | – | – | – | – | –
18 | C[N+](C)(C)C[C@H](O)CC(=O)[O-] [LEVOCARNITINE] | Not Active | Not Active | Not Active | Not Active | Not Active | Not Active | Not Active | Not Active | – | – | – | – | – | – | – | –
19 | O=C(O)c1cc(-c2ccc(F)cc2F)ccc1O [DIFLUNISAL] | Not Active | Not Active | Not Active | Not Active | Not Active | Not Active | Not Active | Not Active | – | – | – | – | – | – | – | –
20 | CN1CCN(C(c2ccccc2)c2ccccc2)CC1 [CYCLIZINE] | Not Active | – | – | Not Active | Not Active | – | – | Not Active | 4.64 | 4.51 | 3.13 | 2.09 | – | – | – | –
21 | CC(C)(C)NCC(O)COc1cccc2c1CC(O)C(O)C2 (stereo not drawn) [NADOLOL] | Not Active | Not Active | Not Active | Not Active | Not Active | Not Active | Not Active | Not Active | – | – | – | – | – | – | – | –
22 | CCCNC(=O)NS(=O)(=O)c1ccc(Cl)cc1 [CHLORPROPAMIDE] | Not Active | Not Active | Not Active | Not Active | Not Active | Not Active | Not Active | Not Active | – | – | – | – | – | – | – | –
23 | CO/N=C(\C(=O)N[C@@H]1C(=O)N2C(C(=O)O)=C(COC(C)=O)CS[C@H]12)c1csc(N)n1 [CEFOTAXIME] | Not Active | Not Active | Not Active | Not Active | Not Active | Not Active | Not Active | Not Active | – | – | – | – | – | – | – | –
24 | Nc1cc(-c2ccncc2)c[nH]c1=O [INAMRINONE] | Not Active | Not Active | Not Active | Not Active | Not Active | Not Active | Not Active | Not Active | – | – | – | – | – | – | – | –
